How the values were obtained:
[1] = according OH&S requirements; of Mn; cited from earlier work
[2] = Hydrogen peroxide destruction in bulk solution in a tube, temperature rise as proxy; format: physicochemical; conditions: antagonist concentrations of below 1×10^−4 M; 0.02M sodium hydroxide; FIG. 3
Description: Screening was initially conducted using bulk solutions combined in a tube, rather than as aerosols.
During destruction of hydrogen peroxide by Mn(II) or permanganate in tubes the temperature of the solution rather often reached boiling point. This should not happen when the biocide is sprayed as a mist due to absolutely different heat exchange conditions in bulk solution and in a thin layer of biocide. […] By lead time is meant the lag or induction period before the reaction velocity increases steeply.

Structure (SMILES)	permissible exposure limit [1] [mg/m^3]	time to peak rate of reaction with 35% peroxide [2]
[Mn] [Mn]	5	
[K+].[O]=[Mn](=[O])(=[O])[O-] [KMnO4]		about 10 mins

Reference: US9226495B2, “Disinfection aerosol, method of use and manufacture” (SABAN VENTURES PTY LIMITED, priority 2009, dated 2016)
